Test results published in US20250101041A1, “POSITIVE ALLOSTERIC MODULATORS OF THE MUSCARINIC ACETYLCHOLINE RECEPTOR M4” (Vanderbilt University, priority 2022, published 2025).

Biological target: T1, human mAChR M4 (Homo sapiens, UniProt P08173)
T1 construct: expressed in transfected cells; host or cells: CHO-K1 (American Type Culture Collection), stably expressing hM4 and Gqi5
T1 sequence (P08173 1-479): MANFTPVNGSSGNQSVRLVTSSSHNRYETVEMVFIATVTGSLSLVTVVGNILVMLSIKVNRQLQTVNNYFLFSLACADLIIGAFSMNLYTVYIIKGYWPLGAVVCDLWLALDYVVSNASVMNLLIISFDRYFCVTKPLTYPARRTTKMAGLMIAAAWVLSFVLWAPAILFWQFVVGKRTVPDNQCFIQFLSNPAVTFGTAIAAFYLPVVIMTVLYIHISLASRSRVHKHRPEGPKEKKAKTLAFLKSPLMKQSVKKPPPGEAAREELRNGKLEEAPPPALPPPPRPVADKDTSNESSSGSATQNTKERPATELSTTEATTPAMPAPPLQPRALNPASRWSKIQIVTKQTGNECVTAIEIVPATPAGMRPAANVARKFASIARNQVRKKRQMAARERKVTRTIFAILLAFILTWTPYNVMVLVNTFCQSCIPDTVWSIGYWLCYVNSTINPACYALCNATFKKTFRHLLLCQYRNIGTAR
Assay: mAChR M4 cell-based functional assay: calcium mobilization (Fluo-4, FDSS), potentiation of EC20 acetylcholine response in hM4-Gqi5 CHO-K1 cells
Conditions: human M4; for Emax at 30 µM: CHO-K1, % ACh maximum at 30 μM; for EC50: potentiation of EC20 acetylcholine response, calcium mobilization
Procedure: Human and rat M4 cDNAs, along with the chimeric G protein Gqi5, were transfected into Chinese hamster ovary (CHO-K1) cells purchased from the American Type Culture Collection using Lipofectamine2000. hM4-Gqi5 cells were grown in Ham's F-12 medium containing 10% heat-inactivated fetal bovine serum (FBS), 20 mM HEPES, 50 μg/mL G418 sulfate, and 500 μg/mL Hygromycin B. rM4-Gqi5 cells were grown in DMEM containing 10% heat-inactivated FBS, 20 mM HEPES, 400 μg/mL G418 sulfate, and 500 μg/mL Hygromycin B.
For high throughput measurement of agonist-evoked increases in intracellular calcium, CHO-K1 cells stably expressing muscarinic receptors were plated in growth medium lacking G418 and hygromycin at 15,000 cells/20 μL/well in Greiner 384-well black-walled, tissue culture (TC)-treated, clear-bottom plates (VWR). Cells were incubated overnight at 37° C. and 5% CO2. The next day, cells were washed using an ELX 405 (BioTek) with assay buffer; the final volume was then aspirated to 20 μL. Next, 20 μL of a […] of Fluo-4/acetoxymethyl ester (Invitrogen, Carlsbad, CA), prepared as a 2.3 mM stock in DMSO and mixed in a 1:1 ratio with 10% (w/v) Pluronic F-127 and diluted in assay buffer, was added to the wells and the cell plates were incubated for 50 min at 37° C. and 5% CO2. Dye was removed by washing with the ELX 405 and the final volume was aspirated to 20 μL. Compound master plates were formatted in an 11 point concentration-response curve (CRC) format (1:3 dilutions) in 100% DMSO with a starting concentration of 10 mM using a BRAVO liquid handler (Agilent). Test compound CRCs were then transferred to daughter plates (240 nL) using the Echo acoustic plate reformatter (Labcyte, Sunnyvale, CA) and then diluted into assay buffer (40 μL) to a 2× stock using a Thermo Fisher Combi (Thermo Fisher Scientific, Waltham, MA).
Calcium flux was measured using the Functional Drug Screening System (FDSS) 6000 or 7000 (Hamamatsu Corporation, Tokyo, Japan) as an increase in the fluorescent static ratio. Compounds were applied to cells (20 μL, 2X) using the automated system of the FDSS at 2-4 seconds into the protocol and the data were collected at 1 Hz. At 144 seconds, 10 μL of an EC20 concentration of the muscarinic receptor agonist acetylcholine was added (5×), followed by the addition of 12 μL of an […] concentration of acetylcholine at the 230 second time point (5×). Agonist activity was analyzed as a concentration-dependent increase in calcium mobilization upon compound addition. Positive allosteric modulator activity was analyzed as a concentration-dependent increase in the EC20 acetylcholine response. Antagonist activity was analyzed as a concentration-dependent decrease in the EC20 acetylcholine response. Concentration-response curves were generated using a four-parameter logistical equation in XLFit curve fitting software (IDBS, Bridgewater, NJ) for Excel (Microsoft, Redmond, WA) or Prism (GraphPad Software, Inc., San Diego, CA).
Compounds were synthesized as described above. Activity (EC50 and Emax) was determined in the mAChR M4 cell-based functional assay as described above and the data are shown in Table 4. The compound number corresponds to the compound numbers used in Tables 1-3.

Emax at 30 µM	EC50	Emax (%)* (% ACh maximum at 30 μM)	Structure (SMILES)
92%	711 nM	–	Cc1cc(=O)n2nc(N3CCc4ncc(-c5cc(F)ncc5C)cc4C3)c(C)cc2n1 [Compound 1-238, 7-(3-(2-fluoro-5-methylpyridin-4-yl)-7,8-dihydro-1,6-naphthyridin-6(5H)-yl)-2,8-dimethyl-4H-pyrimido[1,2-b]pyridazin-4-one]
87%	209 nM	–	Cc1ccc(-c2cnc3c(c2)CN(c2nn4c(=O)c(C)c(C)nc4cc2C)CC3)cn1 [Compound 1-83, 2,3,8-trimethyl-7-(3-(6-methylpyridin-3-yl)-7,8-dihydro-1,6-naphthyridin-6(5H)-yl)-4H-pyrimido[1,2-b]pyridazin-4-one]
73%	136 nM	–	Cc1cc2nc(C)c(F)c(=O)n2nc1N1CCc2ncc(C(F)(F)F)cc2C1 [Compound 1-15, 3-fluoro-2,8-dimethyl-7-(3-(trifluoromethyl)-7,8-dihydro-1,6-naphthyridin-6(5H)-yl)-4H-pyrimido[1,2-b]pyridazin-4-one]
68%	477 nM	–	COCc1cc(=O)n2nc(N3CCc4ncc(-c5ccc(F)c(F)c5)cc4C3)c(C)cc2n1 [Compound 1-330, 7-(3-(3,4-difluorophenyl)-7,8-dihydro-1,6-naphthyridin-6(5H)-yl)-2-(methoxymethyl)-8-methyl-4H-pyrimido[1,2-b] pyridazin-4-one]
87%	747 nM	–	Cc1cc2nccc(=O)n2nc1N1CCc2ncc(Nc3cncc(C(F)(F)F)c3)cc2C1 [Compound 2-138, 8-methyl-7-(3-((5-(trifluoromethyl)pyridin-3-yl)amino)-7,8-dihydro-1,6-naphthyridin-6(5H)-yl)-4H-pyrimido[1,2-b]pyridazin-4-one]
79%	467 nM	–	COCc1cc(=O)n2nc(N3CCc4ncc(-c5ncc(F)cc5F)cc4C3)c(C)cc2n1 [Compound 1-382, 7-(3-(3,5-difluoropyridin-2-yl)-7,8-dihydro-1,6-naphthyridin-6(5H)-yl)-2-(methoxymethyl)-8-methyl-4H-pyrimido[1,2-b] pyridazin-4-one]
96%	181 nM	–	Cc1cc2ncc(Cl)c(=O)n2nc1N1CCc2ncc(C(F)(F)F)cc2C1 [Compound 1-4, 3-chloro-8-methyl-7-(3-(trifluoromethyl)-7,8-dihydro-1,6-napthyridin-6(5H)-yl)-4H-pyrimido[1,2-b]pyridazin-4-one]

The remaining lines, values behind:

Structure (SMILES)	Emax at 30 µM	EC50	Emax (%)* (% ACh maximum at 30 μM)
Cc1cc(=O)n2nc(N3CCc4ncc(-c5cc(F)ncc5F)cc4C3)c(C)c(C)c2n1 [Compound 1-281, 7-(3-(2,5-difluoropyridin-4-yl)-7,8-dihydro-1,6-naphthyridin-6(5H)-yl)-2,8,9-trimethyl-4H-pyrimido[1,2-b]pyridazin-4-one]	85%	498 nM	–
Cc1cc(N(C)C)ncc1-c1cnc2c(c1)CN(c1nn3c(=O)ccnc3cc1C)CC2 [Compound 1-407, 7-(3-(6-(dimethylamino)-4-methylpyridin-3-yl)-7,8-dihydro-1,6-naphthyridin-6(5H)-yl)-8-methyl-4H-pyrimido [1,2-b]pyridazin-4-one]	92%	132 nM	–
Cc1cc2nccc(=O)n2nc1N1CCc2ncc(NC(=O)c3ncco3)cc2C1 [Compound 2-122, N-(6-(8-methyl-4-oxo-4H-pyrimido[1,2-b]pyridazin-7-yl)-5,6,7,8-tetrahydro-1,6-naphthyridin-3-yl)oxazole-2-carboxamide]	44%	1880 nM	–
Cc1ccc2c(c1)N(c1cnc3c(c1)CN(c1nn4c(=O)ccnc4cc1C)CC3)C(C)CO2 (centres unmarked) [Compound 2-54, 7-(3-(3,6-dimethyl-2,3-dihydro-4H-benzo[b][1,4]oxazin-4-yl)-7,8-dihydro-1,6-naphthyridin-6(5H)-yl)-8-methyl-4H-pyrimido[1,2-b]pyridazin-4-one]	96%	64 nM	–
Cc1cc2nccc(=O)n2nc1N1CCc2ncc(-c3cnn(C)c3C(F)F)cc2C1 [Compound 1-413, 7-(3-(5-(difluoromethyl)-1-methyl-1H-pyrazol-4-yl)-7,8-dihydro-1,6-naphthyridin-6(5H)-yl)-8-methyl-4H-pyrimido[1,2-b]pyridazin-4-one]	89%	208 nM	–
Cc1cc2nccc(=O)n2nc1N1CCc2ncc(NC(=O)C3COC3)cc2C1 [Compound 2-109, N-(6-(8-methyl-4-oxo-4H-pyrimido[1,2-b]pyridazin-7-yl)-5,6,7,8-tetrahydro-1,6-naphthyridin-3-yl)oxetane-3-carboxamide]	30%	–	–
Cc1cc2nccc(=O)n2nc1N1CCc2ncc(-c3cnn4c3COCC4)cc2C1 [Compound 1-325, 7-(3-(6,7-dihydro-4H-pyrazolo[5,1-c][1,4]oxazin-3-yl)-7,8-dihydro-1,6-naphthyridin-6(5H)-yl)-8-methyl-4H-pyrimido[1,2-b]pyridazin-4-one]	68%	921 nM	–
Cc1c(N2CCc3ncc(-c4ccc(N5CCCCC5)nc4)cc3C2)nn2c(=O)ccnc2c1C [Compound 1-97, 8,9-dimethyl-7-(3-(6-(piperidin-1-yl)pyridin-3-yl)-7,8-dihydro-1,6-naphthyridin-6(5H)-yl)-4H-pyrimido[1,2-b]pyridazin-4-one]	79%	397 nM	–
COc1ccc(-c2cnc3c(c2)CN(c2nn4c(=O)cc(C)nc4c(C)c2C)CC3)cn1 [Compound 1-186, 7-(3-(6-methoxypyridin-3-yl)-7,8-dihydro-1,6-naphthyridin-6(5H)-yl)-2,8,9-trimethyl-4H-pyrimido[1,2-b]pyridazin-4-one]	84%	460 nM	–
Cc1ncc(-c2cnc3c(c2)CN(c2nn4c(=O)ccnc4cc2C)CC3)c(C)n1 [Compound 1-420, 7-(3-(2,4-dimethylpyrimidin-5-yl)-7,8-dihydro-1,6-naphthyridin-6(5H)-yl)-8-methyl-4H-pyrimido[1,6-b]pyridazin-4-one]	93%	1720 nM	–
Cc1cc(=O)n2nc(N3CCc4ncc(-c5ccncc5C)cc4C3)c(C)c(C)c2n1 [Compound 1-245, 2,8,9-trimethyl-7-(3-(3-methylpyridin-4-yl)-7,8-dihydro-1,6-naphthyridin-6(5H)-yl)-4H-pyrimido[1,2-b] pyridazin-4-one]	87%	72 nM	–
Cc1cc2nc(C(F)F)cc(=O)n2nc1N1CCc2ncc(-n3cccn3)cc2C1 [Compound 2-26, 7-(3-(1H-pyrazol-1-yl)-7,8-dihydro-1,6-naphthyridin-6(5H)-yl)-2-(difluoromethyl)-8-methyl-4H-pyrimido[1,2-b]pyridazin-4-one]	87%	105 nM	–
COCc1cc(=O)n2nc(N3Cc4cc(C(F)(F)F)cnc4C(C)C3)c(C)c(C)c2n1 (single isomer, unassigned) [Compound 1-377]	–	365 nM	112%
Cc1cc(=O)n2nc(N3CCc4ncc(-c5cnc(Cl)cc5C)cc4C3)c(C)c(C)c2n1 [Compound 1-197, 7-(3-(6-chloro-4-methylpyridin-3-yl)-7,8-dihydro-1,6-naphthyridin-6(5H)-yl)-2,8,9-trimethyl-4H-pyrimido[1,2-b]pyridazin-4-one]	81%	275 nM	–
